According to ChEMBL document CHEMBL1201862, “PubChem BioAssay data set” (2004):
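48-hour exposure; five concentrations; linearly interpolated endpoints. GI50 = concentration required for 50% inhibition of growth.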 Calls of active or inactive are those of the source. No stated cut-off is given here; in the data, active = GI50 up to about 1.1 µM and inactive = higher.

Experiments:
Test in all cases: NCI-60 cell line screen, 48 h
COLO 205 = test system: COLO 205
UACC-62 = test system: UACC-62
K562 = test system: K562
SN12C = test system: SN12C
OVCAR-5 = test system: OVCAR-5
SF-539 = test system: SF-539
RPMI-8226 = test system: RPMI-8226
HCT-116 = test system: HCT-116
SF-268 = test system: SF-268
HCT-15 = test system: HCT-15
UO-31 = test system: UO-31
SNB-19 = test system: SNB-19
NCI/ADR-RES = test system: NCI/ADR-RES
LOX IMVI = test system: LOX IMVI
CCRF-CEM = test system: CCRF-CEM
MOLT-4 = test system: MOLT-4
SK-MEL-28 = test system: SK-MEL-28
U-251 = test system: U-251
M14 = test system: M14
HOP-62 = test system: HOP-62
DU-145 = test system: DU-145
HCC 2998 = test system: HCC 2998
OVCAR-8 = test system: OVCAR-8
786-0 = test system: 786-0
SNB-75 = test system: SNB-75
SK-OV-3 = test system: SK-OV-3
SR = test system: SR
SW-620 = test system: SW-620
Hs-578T = test system: Hs-578T
MDA-N = test system: MDA-N
KM12 = test system: KM12
SF-295 = test system: SF-295
NCI-H23 = test system: NCI-H23
UACC-257 = test system: UACC-257
OVCAR-4 = test system: OVCAR-4
OVCAR-3 = test system: OVCAR-3
IGROV-1 = test system: IGROV-1
CAKI-1 = test system: CAKI-1
TK-10 = test system: TK-10
HT-29 = test system: HT-29
MDA-MB-435 = test system: MDA-MB-435
MCF7 = test system: MCF7
A549 = test system: A549
Malme-3M = test system: Malme-3M
HL-60 = test system: HL-60
BT-549 = test system: BT-549
EKVX = test system: EKVX
NCI-H226 = test system: NCI-H226
SK-MEL-5 = test system: SK-MEL-5
RXF 393 = test system: RXF 393
MDA-MB-231 = test system: MDA-MB-231
PC-3 = test system: PC-3
NCI-H522 = test system: NCI-H522
NCI-H460 = test system: NCI-H460
SK-MEL-2 = test system: SK-MEL-2
A498 = test system: A498
ACHN = test system: ACHN
HOP-92 = test system: HOP-92

With `O=C(c1nsc(Cl)c1Cl)N1CCCCC1` the GI50 (COLO 205) was > 100 µM (inactive), the GI50 (UACC-62) was > 100 µM (inactive) and the GI50 (K562) was > 100 µM (inactive). For the same compound, the GI50 (SN12C) was > 100 µM (inactive), the GI50 (OVCAR-5) was > 100 µM (inactive) and the GI50 (SF-539) was > 100 µM (inactive). For the same compound, the GI50 (RPMI-8226) was > 100 µM (inactive), the GI50 (HCT-116) was > 100 µM (inactive) and the GI50 (SF-268) was > 100 µM (inactive). For the same compound, the GI50 (HCT-15) was > 100 µM, the GI50 (UO-31) was 39.5 µM (inactive) and the GI50 (SNB-19) was 82.8 µM (inactive). The GI50 (NCI/ADR-RES) was > 100 µM (inactive), the GI50 (LOX IMVI) was > 100 µM (inactive) and the GI50 (CCRF-CEM) was > 100 µM (inactive). The GI50 (MOLT-4) was > 100 µM (inactive), the GI50 (SK-MEL-28) was > 100 µM (inactive) and the GI50 (U-251) was > 100 µM (inactive). For the same compound, the GI50 (M14) was > 100 µM (inactive), the GI50 (HOP-62) was > 100 µM (inactive) and the GI50 (DU-145) was > 100 µM (inactive). The GI50 (HCC 2998) was > 100 µM (inactive), the GI50 (OVCAR-8) was > 100 µM (inactive) and the GI50 (786-0) was > 100 µM (inactive). The GI50 (SNB-75) was > 100 µM (inactive), the GI50 (SK-OV-3) was > 100 µM (inactive) and the GI50 (SR) was > 100 µM (inactive). The GI50 (SW-620) was > 100 µM (inactive), the GI50 (Hs-578T) was > 100 µM (inactive) and the GI50 (MDA-N) was > 100 µM (inactive). For the same compound, the GI50 (KM12) was > 100 µM (inactive), the GI50 (SF-295) was > 100 µM (inactive) and the GI50 (NCI-H23) was > 100 µM (inactive). For the same compound, the GI50 (UACC-257) was > 100 µM (inactive), the GI50 (OVCAR-4) was > 100 µM (inactive) and the GI50 (OVCAR-3) was > 100 µM (inactive). For the same compound, the GI50 (IGROV-1) was > 100 µM (inactive), the GI50 (CAKI-1) was > 100 µM (inactive) and the GI50 (TK-10) was > 100 µM (inactive). The GI50 (HT-29) was > 100 µM (inactive), the GI50 (MDA-MB-435) was > 100 µM (inactive) and the GI50 (MCF7) was > 100 µM (inactive). For the same compound, the GI50 (A549) was > 100 µM (inactive), the GI50 (Malme-3M) was > 100 µM (inactive) and the GI50 (HL-60) was > 100 µM (inactive). The GI50 (BT-549) was > 100 µM (inactive), the GI50 (EKVX) was > 100 µM (inactive) and the GI50 (NCI-H226) was > 100 µM (inactive). For the same compound, the GI50 (SK-MEL-5) was > 100 µM (inactive), the GI50 (RXF 393) was > 100 µM (inactive) and the GI50 (MDA-MB-231) was > 100 µM (inactive). For the same compound, the GI50 (PC-3) was > 100 µM (inactive).

`COc1ccc(-c2c(C#N)c(O)n(NS(=O)(=O)c3ccc(C)cc3)c(=O)c2C#N)cc1` was tested, and the GI50 (COLO 205) was > 100 µM (inactive), the GI50 (NCI-H522) was 13.8 µM (inactive) and the GI50 (UACC-62) was 81.7 µM (inactive). For the same compound, the GI50 (SN12C) was > 100 µM (inactive), the GI50 (OVCAR-5) was > 100 µM (inactive) and the GI50 (SF-539) was 67.8 µM (inactive). For the same compound, the GI50 (RPMI-8226) was 19.5 µM (inactive), the GI50 (HCT-116) was 56 µM (inactive) and the GI50 (SF-268) was > 100 µM (inactive). The GI50 (HCT-15) was 49.1 µM, the GI50 (SNB-19) was 83.2 µM (inactive) and the GI50 (NCI/ADR-RES) was 61.9 µM (inactive). For the same compound, the GI50 (LOX IMVI) was 45.4 µM (inactive), the GI50 (NCI-H460) was 46.2 µM (inactive) and the GI50 (CCRF-CEM) was 33.4 µM (inactive). The GI50 (MOLT-4) was 20.5 µM (inactive), the GI50 (SK-MEL-28) was 82.8 µM (inactive) and the GI50 (U-251) was 67.8 µM (inactive). For the same compound, the GI50 (M14) was > 100 µM (inactive), the GI50 (HOP-62) was 99.3 µM (inactive) and the GI50 (HCC 2998) was 45.9 µM (inactive). For the same compound, the GI50 (OVCAR-8) was 70 µM (inactive), the GI50 (SK-MEL-2) was > 100 µM (inactive) and the GI50 (786-0) was 67.1 µM (inactive). For the same compound, the GI50 (SNB-75) was > 100 µM (inactive), the GI50 (SK-OV-3) was > 100 µM (inactive) and the GI50 (SW-620) was 57.4 µM (inactive). The GI50 (Hs-578T) was > 100 µM (inactive), the GI50 (MDA-N) was 77.8 µM (inactive) and the GI50 (KM12) was > 100 µM (inactive). The GI50 (SF-295) was 75 µM (inactive), the GI50 (UACC-257) was > 100 µM (inactive) and the GI50 (OVCAR-4) was 81.5 µM (inactive). For the same compound, the GI50 (IGROV-1) was 35.8 µM (inactive), the GI50 (CAKI-1) was > 100 µM (inactive) and the GI50 (TK-10) was 79.3 µM (inactive). For the same compound, the GI50 (HT-29) was > 100 µM (inactive), the GI50 (MDA-MB-435) was 75 µM (inactive) and the GI50 (A498) was 57.1 µM (inactive). The GI50 (MCF7) was 48.6 µM (inactive), the GI50 (A549) was 91.8 µM (inactive) and the GI50 (ACHN) was 47.9 µM (inactive). The GI50 (Malme-3M) was 70.6 µM (inactive), the GI50 (HL-60) was 37.1 µM (inactive) and the GI50 (HOP-92) was 4.71 µM (inactive). The GI50 (BT-549) was 54.8 µM (inactive), the GI50 (EKVX) was 70.8 µM (inactive) and the GI50 (NCI-H226) was > 100 µM (inactive). The GI50 (SK-MEL-5) was 42.1 µM (inactive), the GI50 (RXF 393) was 66.5 µM (inactive) and the GI50 (MDA-MB-231) was > 100 µM (inactive). For the same compound, the GI50 (PC-3) was 71.4 µM (inactive).

With `NC(=O)Nc1c(Cl)cc(S(N)(=O)=O)cc1Cl` the GI50 (COLO 205) was > 100 µM (inactive), the GI50 (NCI-H522) was > 100 µM (inactive) and the GI50 (UACC-62) was > 100 µM (inactive). For the same compound, the GI50 (K562) was > 100 µM (inactive), the GI50 (SN12C) was > 100 µM (inactive) and the GI50 (OVCAR-5) was > 100 µM (inactive). For the same compound, the GI50 (SF-539) was > 100 µM (inactive), the GI50 (RPMI-8226) was > 100 µM (inactive) and the GI50 (HCT-116) was > 100 µM (inactive). For the same compound, the GI50 (SF-268) was > 100 µM (inactive), the GI50 (HCT-15) was > 100 µM and the GI50 (UO-31) was > 100 µM (inactive). The GI50 (SNB-19) was > 100 µM (inactive), the GI50 (NCI/ADR-RES) was > 100 µM (inactive) and the GI50 (LOX IMVI) was > 100 µM (inactive). The GI50 (CCRF-CEM) was > 100 µM (inactive), the GI50 (MOLT-4) was > 100 µM (inactive) and the GI50 (SK-MEL-28) was > 100 µM (inactive). The GI50 (U-251) was > 100 µM (inactive), the GI50 (M14) was > 100 µM (inactive) and the GI50 (HOP-62) was > 100 µM (inactive). For the same compound, the GI50 (DU-145) was > 100 µM (inactive), the GI50 (OVCAR-8) was > 100 µM (inactive) and the GI50 (SK-MEL-2) was > 100 µM (inactive). The GI50 (786-0) was > 100 µM (inactive), the GI50 (SNB-75) was > 100 µM (inactive) and the GI50 (SK-OV-3) was > 100 µM (inactive). The GI50 (SW-620) was > 100 µM (inactive), the GI50 (Hs-578T) was > 100 µM (inactive) and the GI50 (MDA-N) was > 100 µM (inactive). For the same compound, the GI50 (KM12) was > 100 µM (inactive), the GI50 (SF-295) was > 100 µM (inactive) and the GI50 (NCI-H23) was > 100 µM (inactive). The GI50 (UACC-257) was > 100 µM (inactive), the GI50 (OVCAR-4) was > 100 µM (inactive) and the GI50 (OVCAR-3) was > 100 µM (inactive). The GI50 (IGROV-1) was > 100 µM (inactive), the GI50 (CAKI-1) was > 100 µM (inactive) and the GI50 (TK-10) was > 100 µM (inactive). The GI50 (HT-29) was > 100 µM (inactive), the GI50 (MDA-MB-435) was > 100 µM (inactive) and the GI50 (MCF7) was > 100 µM (inactive). For the same compound, the GI50 (A549) was > 100 µM (inactive), the GI50 (Malme-3M) was > 100 µM (inactive) and the GI50 (HL-60) was > 100 µM (inactive). For the same compound, the GI50 (HOP-92) was > 100 µM (inactive), the GI50 (BT-549) was > 100 µM (inactive) and the GI50 (EKVX) was > 100 µM (inactive). The GI50 (NCI-H226) was > 100 µM (inactive), the GI50 (SK-MEL-5) was > 100 µM (inactive) and the GI50 (RXF 393) was > 100 µM (inactive). For the same compound, the GI50 (MDA-MB-231) was > 100 µM (inactive).
